Experimental data reported in US12685735B2 (Foghorn Therapeutics Inc., priority 2020, dated 2026).
Read-outs that look alike come from different tables or passages of the source.

Assays:
[1] = target: BRM (Homo sapiens, UniProt P51531); assay: ATPase catalytic activity assay of BRM (ADP-Glo); format: biochemical; details: for IC50: read-out: BRM IC50 (μM)*
How it was run: (§1)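 ATPase activity of BRG-1 or BRM was read by ADP-Glo. Residual ATP was depleted (40 min, room temperature), then ADP was converted to ATP (60 min, room temperature) and measured as luciferase luminescence.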

[2] = target: BRG-1 (Homo sapiens, UniProt P51532); assay: ATPase catalytic activity assay of BRG-1 (ADP-Glo); format: biochemical; details: for IC50: read-out: BRG1 IC50 (μM)*
Sequence of BRG-1 (P51532 whole entry): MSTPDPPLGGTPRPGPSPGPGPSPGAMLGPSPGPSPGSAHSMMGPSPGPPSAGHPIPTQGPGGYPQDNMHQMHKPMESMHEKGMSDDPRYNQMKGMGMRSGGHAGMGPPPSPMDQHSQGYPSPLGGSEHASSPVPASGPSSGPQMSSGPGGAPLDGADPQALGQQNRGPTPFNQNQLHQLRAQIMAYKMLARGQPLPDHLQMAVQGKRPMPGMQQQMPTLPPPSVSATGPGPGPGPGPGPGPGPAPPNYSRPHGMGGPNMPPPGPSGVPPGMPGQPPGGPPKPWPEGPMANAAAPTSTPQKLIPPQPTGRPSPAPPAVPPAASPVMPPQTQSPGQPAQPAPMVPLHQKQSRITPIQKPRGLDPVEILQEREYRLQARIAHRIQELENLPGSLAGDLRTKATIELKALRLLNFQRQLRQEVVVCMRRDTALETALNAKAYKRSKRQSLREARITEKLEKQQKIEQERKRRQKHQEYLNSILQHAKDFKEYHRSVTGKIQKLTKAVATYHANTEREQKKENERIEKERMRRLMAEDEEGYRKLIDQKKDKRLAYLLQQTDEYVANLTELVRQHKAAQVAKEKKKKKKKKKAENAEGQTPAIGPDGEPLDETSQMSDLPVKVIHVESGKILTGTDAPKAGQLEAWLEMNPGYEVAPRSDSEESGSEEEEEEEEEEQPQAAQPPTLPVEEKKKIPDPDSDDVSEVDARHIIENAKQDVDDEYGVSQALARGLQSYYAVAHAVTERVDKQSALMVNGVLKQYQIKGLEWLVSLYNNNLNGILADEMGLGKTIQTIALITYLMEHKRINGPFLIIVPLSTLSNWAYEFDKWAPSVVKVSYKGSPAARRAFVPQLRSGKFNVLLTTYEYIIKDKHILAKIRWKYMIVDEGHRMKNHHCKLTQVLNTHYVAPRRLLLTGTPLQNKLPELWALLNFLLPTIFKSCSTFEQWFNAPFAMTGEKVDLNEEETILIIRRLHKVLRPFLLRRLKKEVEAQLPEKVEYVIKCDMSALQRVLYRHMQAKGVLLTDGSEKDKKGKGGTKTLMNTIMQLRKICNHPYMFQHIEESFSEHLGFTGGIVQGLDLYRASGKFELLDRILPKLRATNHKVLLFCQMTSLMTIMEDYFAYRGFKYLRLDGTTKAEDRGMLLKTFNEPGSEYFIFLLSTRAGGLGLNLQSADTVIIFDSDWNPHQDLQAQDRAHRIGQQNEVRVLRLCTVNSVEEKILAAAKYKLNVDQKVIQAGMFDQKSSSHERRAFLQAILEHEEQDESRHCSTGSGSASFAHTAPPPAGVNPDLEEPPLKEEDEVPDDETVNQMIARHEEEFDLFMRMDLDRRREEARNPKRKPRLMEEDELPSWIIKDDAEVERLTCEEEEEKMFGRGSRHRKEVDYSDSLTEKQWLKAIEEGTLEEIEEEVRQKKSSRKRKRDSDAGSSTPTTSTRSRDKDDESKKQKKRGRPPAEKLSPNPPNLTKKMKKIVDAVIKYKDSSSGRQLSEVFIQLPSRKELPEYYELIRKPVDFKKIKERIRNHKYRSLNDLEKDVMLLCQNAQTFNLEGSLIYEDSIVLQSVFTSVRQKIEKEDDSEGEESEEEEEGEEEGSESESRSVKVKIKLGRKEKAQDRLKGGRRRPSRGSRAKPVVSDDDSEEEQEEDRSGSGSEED
How it was run: as §1

[3] = ATPase catalytic activity, ADP-Glo
[4] = ATPase catalytic activity, ADP-Glo, read-out: BRG1 Max % Inhibition
[5] = ATPase catalytic activity, ADP-Glo, 30 nM BRG-1, 400 μM ATP
[6] = ATPase catalytic activity, ADP-Glo, 30 nM BRG-1, 400 μM ATP, read-out: BRG1 Max % Inhibition

Sequence of BRM (P51531 whole entry): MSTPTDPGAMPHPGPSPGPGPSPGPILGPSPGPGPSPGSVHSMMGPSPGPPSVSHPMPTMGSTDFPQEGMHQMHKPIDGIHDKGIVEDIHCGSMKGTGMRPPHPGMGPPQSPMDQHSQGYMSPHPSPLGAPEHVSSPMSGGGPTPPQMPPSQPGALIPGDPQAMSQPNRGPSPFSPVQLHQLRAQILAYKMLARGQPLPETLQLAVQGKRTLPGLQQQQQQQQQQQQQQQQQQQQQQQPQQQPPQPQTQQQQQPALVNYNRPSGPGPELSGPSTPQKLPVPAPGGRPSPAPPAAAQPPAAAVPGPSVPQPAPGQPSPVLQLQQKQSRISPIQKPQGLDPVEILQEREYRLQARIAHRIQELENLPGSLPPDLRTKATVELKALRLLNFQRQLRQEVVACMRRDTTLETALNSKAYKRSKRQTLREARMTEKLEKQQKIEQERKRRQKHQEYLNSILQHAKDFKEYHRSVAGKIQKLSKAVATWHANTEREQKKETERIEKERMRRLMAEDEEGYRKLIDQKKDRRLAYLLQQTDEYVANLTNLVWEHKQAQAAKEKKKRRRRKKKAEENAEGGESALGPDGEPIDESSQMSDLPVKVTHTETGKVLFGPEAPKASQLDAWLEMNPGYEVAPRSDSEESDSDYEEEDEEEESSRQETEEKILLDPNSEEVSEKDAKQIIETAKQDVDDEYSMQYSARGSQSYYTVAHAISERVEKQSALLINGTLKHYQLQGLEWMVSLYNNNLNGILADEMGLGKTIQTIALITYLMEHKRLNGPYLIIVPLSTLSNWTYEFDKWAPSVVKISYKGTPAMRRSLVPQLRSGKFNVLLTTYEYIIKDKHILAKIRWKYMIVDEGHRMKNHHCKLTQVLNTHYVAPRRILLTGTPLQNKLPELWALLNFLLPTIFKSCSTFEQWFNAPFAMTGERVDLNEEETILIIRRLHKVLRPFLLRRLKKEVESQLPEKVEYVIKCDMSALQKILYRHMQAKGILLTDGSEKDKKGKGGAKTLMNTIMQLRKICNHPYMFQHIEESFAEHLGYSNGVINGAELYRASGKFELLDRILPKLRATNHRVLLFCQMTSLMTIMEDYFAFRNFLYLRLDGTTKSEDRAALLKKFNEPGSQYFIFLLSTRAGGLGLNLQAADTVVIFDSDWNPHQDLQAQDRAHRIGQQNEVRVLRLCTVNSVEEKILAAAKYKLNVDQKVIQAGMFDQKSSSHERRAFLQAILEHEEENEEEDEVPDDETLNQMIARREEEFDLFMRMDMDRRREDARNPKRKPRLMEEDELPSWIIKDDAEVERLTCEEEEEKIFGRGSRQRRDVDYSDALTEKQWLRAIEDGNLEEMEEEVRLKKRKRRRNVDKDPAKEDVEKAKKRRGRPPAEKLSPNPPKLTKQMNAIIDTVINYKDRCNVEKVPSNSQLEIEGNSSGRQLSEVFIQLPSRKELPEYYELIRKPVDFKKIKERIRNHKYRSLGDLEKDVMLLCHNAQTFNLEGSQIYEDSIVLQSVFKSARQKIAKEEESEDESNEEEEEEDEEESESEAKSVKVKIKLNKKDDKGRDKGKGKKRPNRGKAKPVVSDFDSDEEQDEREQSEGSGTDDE

SMILES	BRM Max % Inhibition [1]	IC50 [1]	IC50 [2, 3]	Emax [2, 4]	Emax ([2]; read-out: BRG1 Max % Inhibition, ATPase catalytic activity, ADP-Glo)	BRG1 Max % Inhibition [2, 3]	BRM Max % Inhibition ([1]; 30 nM BRM, 400 μM ATP)	IC50 ([1]; 30 nM BRM, 400 μM ATP)	IC50 [2, 5]	Emax [2, 6]
COc1cccc(-c2csc(NC(=O)C3(NC(=O)c4ccc5c(c4)[C@](C)(C#N)COC5)CC3(F)F)n2)c1 (stereo partly drawn) [Compound 336, (R)-4-cyano-N-(2,2-difluoro-1-((4-(3-methoxyphenyl)thiazol-2-yl)carbamoyl)cyclopropyl)-4-methylisochromane-6-carboxamide]	>85%	0.1 to 1 µM	1 to 5 µM	> 85%	–	–	–	–	–	–
C[C@@H]1CN(c2cccc(-c3csc(NC(=O)CNC(=O)c4cccc([C@]5(C)C[C@H](O)C5)c4)n3)c2)C[C@H](C)O1 [Compound 393, N-(2-((4-(3-((cis)-2,6-dimethylmorpholino)phenyl)thiazol-2-yl)amino)-2-oxoethyl)-3-((1s,3s)-3-hydroxy-1-methylcyclobutyl)benzamide]	>95%	0.1 to 1 µM	> 5 µM	> 95%	–	–	–	–	–	–
Cc1nccc(-c2cccc(-c3csc(NC(=O)CNC(=O)c4cccc(S(=O)(=O)C(C)C)c4)n3)n2)n1 [Compound 121]	>95%	0.1 to 1 µM	1 to 5 µM	> 80%	–	–	–	–	–	–
Cc1cc(C(=O)NCC(=O)Nc2nc(-c3cccc(-c4ccncc4)c3)cs2)cc(C(C)(C)CN)c1C [Compound 97]	>90%	0.1 to 1 µM	1 to 5 µM	> 70%	–	–	–	–	–	–
COc1cccc(-c2csc(NC(=O)CNC(=O)c3ccc4c(c3)[C@@](C)(F)CCOC4)n2)c1 [Compound 278, (S)-5-fluoro-N-(2-((4-(3-methoxyphenyl)thiazol-2-yl)amino)-2-oxoethyl)-5-methyl-1,3,4,5-tetrahydrobenzo[c]oxepine-7-carboxamide]	>90%	0.1 to 1 µM	> 5 µM	–	> 90%	–	–	–	–	–
NCC1(c2cccc(C(=O)NCC(=O)Nc3nc(-c4cccc(-c5ccncc5)c4)cs3)c2)CC1 [Compound 72, 3-(1-(aminomethyl)cyclopropyl)-N-(2-oxo-2-((4-(3-(pyridin-4-yl)phenyl)thiazol-2-yl)amino)ethyl)benzamide]	>80%	0.1 to 1 µM	> 5 µM	> 50%	–	–	–	–	–	–
C[C@@]1(C#N)COCc2ccc(C(=O)NCC(=O)Nc3nc(-c4cccc(C5CCO5)c4)cs3)cc21 (stereo partly shown) [Compound 365]	>95%	< 0.1 µM	0.1 to 1 µM	–	–	>95%	–	–	–	–
C[C@@H]1CN(c2cccc(-c3csc(NC(=O)CNC(=O)c4ccc5c(c4)C4(CCO5)CCO4)n3)n2)C[C@H](C)O1 (stereo partly shown) [Compound 360]	–	< 0.1 µM	1 to 5 µM	> 95%	–	–	–	–	–	–
C[C@@H]1CN(c2cccc(-c3csc(NC(=O)CNC(=O)c4ccnc(C(C)(C#N)CO)c4)n3)c2)C[C@H](C)O1 (stereo in doubt) [Compound 427, 2-((R)-2-cyano-1-hydroxypropan-2-yl)-N-(2-((4-(3-((cis)-2,6-dimethylmorpholino)phenyl)thiazol-2-yl)amino)-2-oxoethyl)isonicotinamide]	–	–	–	–	–	–	>85%	0.1 to 1 µM	> 5 µM	> 85%
C[C@@H]1CN(c2cccc(-c3csc(NC(=O)CNC(=O)c4ccc(F)c(C(C)(C)CO)c4)n3)c2)C[C@H](C)O1 [Compound 200, N-(2-((4-(3-((cis)-2,6-dimethylmorpholino)phenyl)thiazol-2-yl)amino)-2-oxoethyl)-4-fluoro-3-(1-hydroxy-2-methylpropan-2-yl)benzamide]	>95%	< 0.1 µM	0.1 to 1 µM	> 80%	–	–	–	–	–	–
CC(C)S(=O)(=O)c1cccc(C(=O)NCC(=O)Nc2nc(-c3cccc(CO[C@H]4CC[C@H](O)CC4)c3)cs2)c1 [Compound 17, N-(2-((4-(3-((((1R,4R)-4-hydroxycyclohexyl)oxy)methyl)phenyl)thiazol-2-yl)amino)-2-oxoethyl)-3-(isopropylsulfonyl)benzamide]	>90%	0.1 to 1 µM	> 5 µM	> 60%	–	–	–	–	–	–
CC1(C#N)CCOc2ccc(C(=O)NCC(=O)Nc3nc(-c4cccc(C(F)F)n4)cs3)cc21 (stereo in doubt) [Compound 430, (S)-4-cyano-N-(2-((4-(6-(difluoromethyl)pyridin-2-yl)thiazol-2-yl)amino)-2-oxoethyl)-4-methylchromane-6-carboxamide]	–	–	–	–	–	–	>95%	0.1 to 1 µM	1 to 5 µM	> 95%
CCc1ccc(C(=O)NCC(=O)Nc2nc(-c3cccc(-c4ccn(C)n4)c3)cs2)cc1C(C)(C)CN [Compound 71, 3-(1-amino-2-methylpropan-2-yl)-4-ethyl-N-(2-((4-(3-(1-methyl-1H-pyrazol-3-yl)phenyl)thiazol-2-yl)amino)-2-oxoethyl)benzamide]	>70%	1 to 5 µM	> 5 µM	> 30%	–	–	–	–	–	–
C[C@@H]1CN(c2cccc(-c3csc(NC(=O)CNC(=O)c4ccc5c(c4)[C@H](C#N)CCO5)n3)n2)C[C@H](C)O1 (racemic) [Compound 405, rac-4-cyano-N-(2-((4-(6-((cis)-2,6-dimethylmorpholino)pyridin-2-yl)thiazol-2-yl)amino)-2-oxoethyl)chromane-6-carboxamide]	>90%	0.1 to 1 µM	1 to 5 µM	> 90%	–	–	–	–	–	–
Cn1ncc(-c2cccc(-c3csc(NC(=O)CNC(=O)c4cccc(C(C)(C)CO)c4)n3)n2)n1 [Compound 154, 3-(1-hydroxy-2-methylpropan-2-yl)-N-(2-((4-(6-(2-methyl-2H-1,2,3-triazol-4-yl)pyridin-2-yl)thiazol-2-yl)amino)-2-oxoethyl)benzamide]	>90%	0.1 to 1 µM	1 to 5 µM	> 60%	–	–	–	–	–	–
Cc1nccc(-c2cccc(-c3csc(NC(=O)CNC(=O)c4ccc5c(c4)[C@](C)(CO)CCC5)n3)n2)n1 [Compound 212, (4R)-4-(hydroxymethyl)-4-methyl-N-[2-[[4-[6-(2-methylpyrimidin-4-yl)-2-pyridyl]thiazol-2-yl]amino]-2-oxo-ethyl]tetralin-6-carboxamide]	>70%	0.1 to 1 µM	> 5 µM	< 30%	–	–	–	–	–	–
COC(=O)N1CCC[C@@H](c2csc(NC(=O)CNC(=O)c3ccc4c(c3)[C@@](C)(C#N)COC4)n2)C1 (stereo in doubt) [Compound 354, methyl (R)-3-(2-(2-((S)-4-cyano-4-methylisochromane-6-carboxamido)acetamido)thiazol-4-yl)piperidine-1-carboxylate]	>95%	0.1 to 1 µM	0.1 to 1 µM	> 95%	–	–	–	–	–	–
Cc1nccc(-c2cccc(-c3csc(NC(=O)CNC(=O)c4ccc(C)c(C(C)(C)CN)c4)n3)n2)n1 [Compound 206, 3-(2-amino-1,1-dimethyl-ethyl)-4-methyl-N-[2-[[4-[6-(2-methylpyrimidin-4-yl)-2-pyridyl]thiazol-2-yl]amino]-2-oxo-ethyl]benzamide]	>95%	0.1 to 1 µM	1 to 5 µM	> 70%	–	–	–	–	–	–
C[C@@H]1CN(c2cccc(-c3csc(NC(=O)CNC(=O)c4ccc5c(c4)CCCCO5)n3)n2)C[C@H](C)O1 [Compound 338, N-(2-((4-(6-((cis)-2,6-dimethylmorpholino)pyridin-2-yl)thiazol-2-yl)amino)-2-oxoethyl)-2,3,4,5-tetrahydrobenzo[b]oxepine-7-carboxamide]	>90%	0.1 to 1 µM	0.1 to 1 µM	> 90%	–	–	–	–	–	–
Cc1nccc(-c2cccc(-c3csc(NC(=O)CNC(=O)c4ccc5c(c4)[C@@](C)(CO)CC5)n3)n2)n1 [Compound 214]	>90%	0.1 to 1 µM	0.1 to 1 µM	> 80%	–	–	–	–	–	–
COc1cc(-c2cccc(-c3csc(NC(=O)CNC(=O)c4cccc(S(=O)(=O)C(C)C)c4)n3)c2)ccn1 [Compound 29, 3-(isopropylsulfonyl)-N-(2-((4-(3-(2-methoxypyridin-4-yl)phenyl)thiazol-2-yl)amino)-2-oxoethyl)benzamide]	>90%	0.1 to 1 µM	0.1 to 1 µM	–	–	–	–	–	–	–
Cc1cc(C)c(C(C)(C)CN)cc1C(=O)NCC(=O)Nc1nc(-c2cccc(-c3ccncc3)c2)cs1 [Compound 89]	>80%	1 to 5 µM	> 5 µM	> 30%	–	–	–	–	–	–
CSCC[C@H](NC(=O)c1cccc(C(C)(C)CN)c1)C(=O)Nc1nc(-c2cccc(-c3ccncc3)c2)cs1 [Compound 48, (S)-3-(1-amino-2-methylpropan-2-yl)-N-(4-(methylthio)-1-oxo-1-((4-(3-(pyridin-4-yl)phenyl)thiazol-2-yl)amino)butan-2-yl)benzamide]	>95%	0.1 to 1 µM	0.1 to 1 µM	> 80%	–	–	–	–	–	–
Cc1ccc(C(=O)NCC(=O)Nc2nc(-c3cccc(N4C[C@@H](C)O[C@@H](C)C4)n3)cs2)cc1C(C)(C)CO [Compound 237, N-(2-((4-(6-((cis)-2,6-dimethylmorpholino)pyridin-2-yl)thiazol-2-yl)amino)-2-oxoethyl)-3-(1-hydroxy-2-methylpropan-2-yl)-4-methylbenzamide]	>95%	< 0.1 µM	0.1 to 1 µM	> 90%	–	–	–	–	–	–
